Experimental data as given in ChEMBL document CHEMBL5608184, “Discovery and mechanistic insights into thieno[3,2-d]pyrimidine and heterocyclic fused pyrimidines inhibitors targeting tubulin for cancer therapy” (Eur J Med Chem, 2024).
Calls of active or inactive are those of the source. No cut-off for these calls is given here.

What was measured:
Tubulin (Homo sapiens) [1] = target: T1, Tubulin (Homo sapiens) (UniProt P68371+Q9H4B7+P0DPH7+P68366+Q13509+Q71U36+P04350+Q3ZCM7+P07437+P68363+Q9BQE3+Q6PEY2+Q13885+Q9BVA1+Q9BUF5); experiment: Inhibition of tubulin polymerization in human SK-OV-3 assessed as condensation of microtubule at cell periphery at 2 nM incubated for 24 hrs by immunofluorescence based analysis
Tubulin (Homo sapiens) [2] = target: T1, Tubulin (Homo sapiens); experiment: Inhibition of tubulin polymerization in human SK-OV-3 assessed as disruption of microtubule cytoskeleton at 2 nM incubated for 24 hrs by immunofluorescence based analysis; assay type: cell-based
Tubulin (Homo sapiens) [3] = target: T1, Tubulin (Homo sapiens); experiment: Inhibition of tubulin polymerization in human SK-OV-3 assessed as severe cell contraction at 2 nM incubated for 24 hrs by immunofluorescence based analysis
Tubulin (Homo sapiens) [4] = target: T1, Tubulin (Homo sapiens); experiment: Inhibition of tubulin polymerization in human SK-OV-3 assessed as decrease in cell viability at 2 nM incubated for 24 hrs by immunofluorescence based analysis
A2780 = experiment: Antiproliferative activity against human A2780 cells incubated for 48 hrs by CCK8 assay; assay type: functional, cell-based; details: A2780, 48 h
SK-OV-3 [5] = experiment: Antiproliferative activity against human SK-OV-3 cells incubated for 48 hrs by CCK8 assay; assay type: functional, cell-based; details: SK-OV-3, 48 h
HCC827 = experiment: Antiproliferative activity against human HCC827 cells incubated for 48 hrs by CCK8 assay; assay type: functional, cell-based; details: HCC827, 48 h
[6] = Antiproliferative activity against Paclitaxel-resistant human A2780 cells incubated for 48 hrs by CCK8 assay; assay type: functional, cell-based; details: Paclitaxel-resistant A2780, 48 h
SK-OV-3 [7] = experiment: Inhibition of colony formation in human SK-OV-3 cells incubated for 3 days by crystal violet staining based analysis; assay type: functional, cell-based; details: dose 0.625-5 nM, time 3.0 day
Sus scrofa = species: Sus scrofa; experiment: Inhibition of porcine brain tubulin polymerization measured for 60 min by fluorescence based assay; details: dose 10.0 µM
SK-OV-3 [8] = experiment: Induction of cell cycle arrest at G2/M phase in human SK-OV-3 cells at 1.25 nM incubated for 24 hrs by PI staining based flow cytometry (reference value: 30.13 %); assay type: functional
SK-OV-3 [9] = experiment: Induction of cell cycle arrest at G2/M phase in human SK-OV-3 cells at 2.5 nM incubated for 24 hrs by PI staining based flow cytometry (reference value: 30.13 %); assay type: functional
SK-OV-3 [10] = experiment: Induction of cell cycle arrest at G2/M phase in human SK-OV-3 cells at 5 nM incubated for 24 hrs by PI staining based flow cytometry (reference value: 30.13 %); assay type: functional
SK-OV-3 [11] = experiment: Induction of cell cycle arrest at G2/M phase in human SK-OV-3 cells assessed as decrease in Cdc-25c level incubated for 24 hrs by Western blot analysis; assay type: functional, cell-based; details: dose 0.625-5 nM
SK-OV-3 [12] = experiment: Induction of cell cycle arrest at G2/M phase in human SK-OV-3 cells assessed as increase in Cyclin B level incubated for 24 hrs by Western blot analysis; assay type: functional, cell-based; details: dose 0.625-5 nM
SK-OV-3 [13] = experiment: Induction of apoptosis in human SK-OV-3 cells assessed as late apoptotic cells at 1.25 nM incubated for 48 hrs by Annexin V-APC-A/7-AAD-A staining based flow cytometry (reference value: 1.20 %); assay type: functional
SK-OV-3 [14] = experiment: Induction of apoptosis in human SK-OV-3 cells assessed as late apoptotic cells at 2.5 nM incubated for 48 hrs by Annexin V-APC-A/7-AAD-A staining based flow cytometry (reference value: 1.20 %); assay type: functional
SK-OV-3 [15] = experiment: Induction of apoptosis in human SK-OV-3 cells assessed as viable cells at 5 nM incubated for 48 hrs by Annexin V-APC-A/7-AAD-A staining based flow cytometry (reference value: 97.50 %); assay type: functional; details: read-out: Activity
SK-OV-3 [16] = experiment: Induction of apoptosis in human SK-OV-3 cells assessed as necrotic cells at 5 nM incubated for 48 hrs by Annexin V-APC-A/7-AAD-A staining based flow cytometry (reference value: 0.21 %); assay type: functional
SK-OV-3 [17] = experiment: Induction of apoptosis in human SK-OV-3 cells assessed as decrease in Bcl-2 level incubated for 48 hrs by Western blot analysis; assay type: functional, cell-based; details: dose 0.625-5 nM
SK-OV-3 [18] = experiment: Induction of apoptosis in human SK-OV-3 cells assessed as increase in cleaved caspase-3 level incubated for 48 hrs by Western blot analysis; assay type: functional, cell-based; details: dose 0.625-5 nM
SK-OV-3 [19] = experiment: Induction of apoptosis in human SK-OV-3 cells assessed as increase in cleaved caspase-9 level incubated for 48 hrs by Western blot analysis; assay type: functional, cell-based; details: dose 0.625-5 nM
SK-OV-3 [20] = experiment: Induction of apoptosis in human SK-OV-3 cells assessed as increase in cleaved PARP level incubated for 48 hrs by Western blot analysis; assay type: functional, cell-based; details: dose 0.625-5 nM
SK-OV-3 [21] = experiment: Inhibition of cell migration in human SK-OV-3 cells assessed as relative wound density at 2.5 nM incubated for 24 hrs by wound healing assay (reference value: 61.61 %); assay type: functional; design: scale not given: the % may be the effect or the level left
SK-OV-3 [22] = experiment: Inhibition of cell migration in human SK-OV-3 cells assessed as migration rate at 0.625 nM incubated for 24 hrs by wound healing assay relative to control; assay type: functional; design: scale not given: the % may be the effect or the level left
SK-OV-3 [23] = experiment: Inhibition of cell migration in human SK-OV-3 cells assessed as migration rate at 1.25 nM incubated for 24 hrs by wound healing assay relative to control; assay type: functional; design: scale not given: the % may be the effect or the level left
SK-OV-3 [24] = experiment: Inhibition of cell migration in human SK-OV-3 cells assessed as migration rate at 2.5 nM incubated for 24 hrs by wound healing assay relative to control; assay type: functional; design: scale not given: the % may be the effect or the level left
SK-OV-3 [25] = experiment: Inhibition of cell migration in human SK-OV-3 cells assessed as migration rate at 5 nM incubated for 24 hrs by wound healing assay relative to control; assay type: functional; design: scale not given: the % may be the effect or the level left
A549 = experiment: cells; details: Homo sapiens, A549, 48 h
Description: Antiproliferative activity against human A549 cells incubated for 48 hrs by CCK8 assay

SK-OV-3 [26] = experiment: Induction of apoptosis in human SK-OV-3 cells assessed as necrotic cells at 0.625 nM incubated for 48 hrs by Annexin V-APC-A/7-AAD-A staining based flow cytometry (reference value: 0.48 %); assay type: functional
SK-OV-3 [27] = experiment: Induction of apoptosis in human SK-OV-3 cells assessed as viable cells at 1.25 nM incubated for 48 hrs by Annexin V-APC-A/7-AAD-A staining based flow cytometry (reference value: 97.17 %); assay type: functional; details: read-out: Activity
SK-OV-3 [28] = experiment: Induction of apoptosis in human SK-OV-3 cells assessed as necrotic cells at 1.25 nM incubated for 48 hrs by Annexin V-APC-A/7-AAD-A staining based flow cytometry (reference value: 0.48 %); assay type: functional
SK-OV-3 [29] = experiment: Induction of apoptosis in human SK-OV-3 cells assessed as viable cells at 2.5 nM incubated for 48 hrs by Annexin V-APC-A/7-AAD-A staining based flow cytometry (reference value: 97.17 %); assay type: functional; details: read-out: Activity
SK-OV-3 [30] = experiment: Induction of apoptosis in human SK-OV-3 cells assessed as necrotic cells at 2.5 nM incubated for 48 hrs by Annexin V-APC-A/7-AAD-A staining based flow cytometry (reference value: 0.48 %); assay type: functional
SK-OV-3 [31] = experiment: Induction of apoptosis in human SK-OV-3 cells assessed as early apoptotic cells at 5 nM incubated for 48 hrs by Annexin V-APC-A/7-AAD-A staining based flow cytometry (reference value: 1.12 %); assay type: functional
SK-OV-3 [32] = experiment: Induction of apoptosis in human SK-OV-3 cells assessed as necrotic cells at 5 nM incubated for 48 hrs by Annexin V-APC-A/7-AAD-A staining based flow cytometry (reference value: 0.48 %); assay type: functional

| Structure (SMILES) | inhibition (Tubulin (Homo sapiens) [1]) | inhibition (Tubulin (Homo sapiens) [2]) | inhibition (Tubulin (Homo sapiens) [3]) | inhibition (Tubulin (Homo sapiens) [4]) | IC50 (A2780) [nM] | IC50 (SK-OV-3 [5]) [nM] | IC50 (HCC827) [nM] | IC50 [6] [nM] | inhibition (SK-OV-3 [7]) | inhibition (Sus scrofa) | Activity (SK-OV-3 [11]) | Activity (SK-OV-3 [12]) | Activity (SK-OV-3 [17]) | Activity (SK-OV-3 [18]) | Activity (SK-OV-3 [19]) | Activity (SK-OV-3 [20]) | Activity (SK-OV-3 [22]) [%] | Activity (SK-OV-3 [23]) [%] | Activity (SK-OV-3 [24]) [%] | Activity (SK-OV-3 [25]) [%] | other results |
| --- | --- | --- | --- | --- | --- | --- | --- | --- | --- | --- | --- | --- | --- | --- | --- | --- | --- | --- | --- | --- | --- |
| COc1ccc(N(C)c2nc(Cl)nc3ccn(C)c23)cc1 | Active | Active | Active | Active | 1.56 | 1.32 | 1.74 | 2.26 | Dose-Dependent Effect | Dose-Dependent Effect | Active | Active | Dose-Dependent Effect | Dose-Dependent Effect | Dose-Dependent Effect | Dose-Dependent Effect | 102.55 | 94.75 | 81.73 | 56.82 | Activity (SK-OV-3 [8]): 34.62%; Activity (SK-OV-3 [9]): 52.19%; Activity (SK-OV-3 [10]): 87.47%; Activity (SK-OV-3 [13]): 2.48%; Activity (SK-OV-3 [14]): 2.27%; viability at 0.005 µM (SK-OV-3 [15]): 54%; Activity (SK-OV-3 [16]): 2.25%; Activity (SK-OV-3 [21]): 6.33%; IC50 (A549): 1.76 nM |
| COc1ccc2c(c1)NC(=O)CN2c1nc(Cl)nc2ccsc12 | Active | Active | Active | Active | 0.38 | 0.31 | 0.34 | 0.75 | Dose-Dependent Effect | Dose-Dependent Effect | Active | Active | Dose-Dependent Effect | Dose-Dependent Effect | Dose-Dependent Effect | Dose-Dependent Effect | 84.28 | 70.73 | 50.2 | 23.64 | Activity (SK-OV-3 [26]): 0.91%; viability at 0.00125 µM (SK-OV-3 [27]): 54.3%; Activity (SK-OV-3 [28]): 2.6%; viability at 0.0025 µM (SK-OV-3 [29]): 53.9%; Activity (SK-OV-3 [30]): 2.32%; Activity (SK-OV-3 [31]): 31.24%; Activity (SK-OV-3 [32]): 2.06%; IC50 (A549): 0.84 nM |
